Laboratory results from patent publication US10391070B2, “Compositions and methods for treating neurological diseases or injury” (MUSC FOUNDATION FOR RESEARCH DEVELOPMENT, priority 2012, dated 2019).
Where two headings read alike, the source gives them in different places.

What was measured:
[1] = system: zebrafish larvae; assay: Zebrafish larval toxicity (NOEC, lethal dose); type: in vivo; conditions: 7 dpf zebrafish larvae; for Lethal dose: up to 5 h treatment; for Highest concentration tested for anti-seizure activity: highest sub-lethal dose
Method: Using a 96-well plate, one zebrafish larva (7 dpf) was placed in each well in 100 μL of tank water (TW). 100 μL of each compound (0.5-15 μM) was then added to each well for 12 animals (one row) to give a final volume of 200 […]. A control row was tested for DMSO toxicity effects. […] Each drug was assessed for the no observed effect concentration (NOEC), the highest non-lethal dose resulting in no apparent toxic effects.
Zebrafish (AB strain) were obtained from the Zebrafish International Resource Center (supported by P40 RR012546 from NIH-NCRR). Zebrafish were maintained and crossed according to standard methods (Westerfield, 2000). Fertilized eggs were collected and placed in E3 embryo medium and positioned in an incubator set at 28.5° C. with a 14/10 h light/dark cycle (Kimmel et al., 1995). To determine the lethal dose of each compound, 96-well plates containing one zebrafish (7 days post-fertilization, dpf) per well in 100 μL of tank water were used. 100 μL of each compound (0.5 to 15 μM) was added to each well for 12 animals (one row) for a final volume of 200 μL. One row of larvae was used as DMSO only controls. […] All zebrafish studies were approved by the Medical University of South Carolina Institutional Animal Care and Use Committee (AR #2850) and performed in accordance with the guidelines.
Using a 96-well plate, one zebrafish larva (7 dpf) was placed in each well in 100 μL of tank water. 100 μL of each compound was then added to each well for 12 animals (one row) for a final volume of 200 μL. One row of zebrafish larvae was used as DMSO only controls. […] Toxicity was also measured in the mouse model by the NIH Anticonvulsant Screening Program at the National Institute of Neurological Disorders and Stroke (Stables and Kupferberg, 1997), according to the established NIH experimental procedures. Compounds were delivered into mice by intraperitoneal (i.p.) injection at a dose of 100 mg/kg in sterile 5% DMSO, 95% Neobee (Josey et al., 2013). Acute toxicity was assessed by monitoring the animals for impaired neuromuscular function by placing treated mice on a rod rotating at 6 rpm. […]

[2] = system: PTZ-induced seizures; assay: PTZ-induced seizure (swim activity) model in zebrafish larvae; type: in vivo, zebrafish (Danio rerio); conditions: for Seizure suppression: PTZ-treated zebrafish larvae, pretreated 1 hr at NOEC
Method: The DanioVision locomotion tracking instrument with Ethovision XT software (Noldus) was used to measure the severity of the seizures by quantifying the locomotor activity of each fish.
In a 48-well plate, one 6-7 dpf larva was added per well. Compounds were given at a sub-lethal dose and treated for 1 h. Three control rows were included—tank water (TW) only, PTZ only and PTZ+VPA (2-4 mM final concentration of VPA). […] After 5 min, the plate was transferred to the Daniovision apparatus and the chamber light was turned on. After 2 min, Ethovision was used to determine the distance traveled (a marker of seizure of activity) by each fish for 15 min (25 frames per second). Velocity, duration of movement, and frequency of movement were also determined from the same recording. After measurement, fish were monitored visually for survival. The distance moved over the recording period with Ethovision XT software (Noldus) was averaged over 8 wells per treatment unless the fish was not detected.
In a 48-well plate, one 7 dpf zebrafish was added per well. Larvae were dosed with each compound at a sub-lethal dose 1 h prior to PTZ treatment. Three control rows were included with each experiment—tank water only control, PTZ only and PTZ+VPA (4 mM final concentration of VPA). […] After 5 min, the plate was transferred to the Daniovision instrument (Noldus Information Technology) and the chamber light was turned on. After 2 min, MediaRecorder (Noldus) was used to record video for 15 min. A small number of videos were acquired 25 frames per second, but the majority of the data was acquired at the frame rate of 60 frames per second. After recording, fish were monitored visually for survival. Ethovision XT software (Noldus) was used to track the fish movement from the video images in order to calculate the total distance traveled over 15 min. […] All experimental comparisons were made between animals from the same clutch.

[3] = system: HT22 cells; assay: In vitro neuroprotective activity against glutamate-induced cell death (MTS cell viability); type: cell-based, mouse; conditions: HT22 cells; for EC50: Mus musculus, HT-22, 10 mM glutamate, 24 hrs, MTS, concentration producing 50% protection, read-out: Protection PC50
Method: (§1) The HT22 neuronal cell line is a subclone of HT4, derived from the mouse hippocampus (Morimoto and Koshland, 1990). […] HT22 cells were used. The cells were grown in Dulbecco's Modified Eagle's medium (DMEM/high glucose) supplemented with 10% fetal bovine serum (Hyclone) and 5 mL Antibiotic-Antimycotic (Amphotericin B, Penicillin, and Streptomycin; Invitrogen) at 37° C. in 5% CO2.
(§2) Cell viability was assessed by the ability of the viable cells to metabolize 3-(4,5-dimethylthiazol-2-yl)-5-(3-carboxymethoxyphenyl)-2(4-sulfophenyl)2-H-tetrazolium, inner salt (MTS), as described previously (Cory et al., 1991). The metabolism of tetrazolium salts is often used to measure cellular proliferation, but in the system used here, it has been previously shown to correlate well with cell viability as determined by trypan blue exclusion and colony-forming assays (Davis and Maher, 1994). Briefly, HT-22 cells were seeded onto 96-well plates at 5.0×10^3 cells per well in 75 μL of medium and maintained at 37° C. in 5% CO2 overnight prior to the initiation of experimental treatments. For glutamate toxicity testing, cells were subsequently treated with 25 μL of medium containing glutamate (monosodium glutamate, Sigma, 1 M stock concentration in media, to achieve a final concentration of 10 mM) plus inhibitors (stock in DMSO) and maintained at 37° C. in 5% CO2. For t-BuOOH toxicity testing, cells were subsequently treated with 25 μL of medium containing t-BuOOH (Sigma, 10 mM stock concentration, to achieve a final concentration of 50 μM) plus inhibitors (stock in DMSO) and maintained at 37° C. in 5% CO2 for 3 hours, after which the media was removed, cells washed gently with HBSS, the media replaced with standard culture media, and the cells returned to incubation at 37° C. in 5% CO2. For both glutamate and t-BuOOH treatments, 10 μl of MTS solution was added to each well 24 hrs after initial treatment, and the cells were maintained in growth medium for 2 h at 37° C. Absorbance at 490 nm was subsequently measured by a SpectraMax 190 plate reader (Molecular Devices). The growth medium without cells in the presence of MTS solution was used as solution background and untreated cells were considered the controls. Cell viability was calculated as a percentage compared with untreated controls. EC50 determinations were based on 12-point titrations using GraphPad Prism, and each experiment was repeated at least four times. Morphology of HT22 cells following treatments was determined by phase-contrast microscopy. Digital images of cells grown on cell culture plates were captured at 10× magnification.
The neuroprotective properties of VK and its derivatives were estimated through their protective effects against cell death in mouse neuronal HT22 cells induced by exposure to high levels of glutamate, which recapitulates a hallmark of the extracellular environment found in several neurodegenerative diseases and CNS injuries and is a well established model of neuronal oxidative stress. This investigation began by comparing the relative abilities of the two predominant naturally occurring forms of VK, VK1 and VK2, to prevent oxidative cell death. […] Several 1,4-naphthoquinones with various substitutions at the 2′ and 3′ positions were tested to determine the minimum structural requirement of the system and what the optimum scaffold for future developmental efforts and biological validation would be (FIG. 1B and Table 1). […] Substitution by a single methyl group at the 2′ position (VK3) improves the compound's ability to protect against cell death. Various other simple substituents at the 2′ and 3′ positions give the naphthoquinone structure the ability to prevent oxidative cell death at nanomolar concentrations (Table 1 and FIG. 16).

[4] = In vitro neurotoxicity without glutamate (MTS cell viability); type: cell-based, mouse; conditions: mouse, HT22 cells without glutamate, 24 hrs, MTS, concentration producing 50% toxicity, read-out: Toxicity TC50
Method: as §1, §2

[5] = system: HT22 cells; assay: as above; type: cell-based, mouse; conditions: for Safety Index TC50/PC50: HT22 cells
Method: as §1, §2

[6] = HT22 neuronal cells (without glutamate)

Compound	EC50 [3] [nM]	CC50 at 24 h [4, 6] [nM]	Safety Index TC50/PC50 [5]	further results
CN1CCc2c(c3ccccc3n2Cc2ccc(C(=O)NO)cc2)C1 [Tubastatin A (Tub A), Tubastatin A]				Lethal dose [1]: >0.012 mM; Highest concentration tested for anti-seizure activity [1]: 0.012 mM; Seizure suppression [2]: No
CCCC(CCC)C(=O)NO [2-propylpentane hydroxamic acid (VPHA), 2-propylpentane hydroxamic acid]				Lethal dose [1]: >0.05 mM; Highest concentration tested for anti-seizure activity [1]: 0.05 mM; Seizure suppression [2]: No
O=C(NC1=CC(=O)c2ccccc2C1=O)c1ccc(Cl)cc1 [Compound 3i, 4-chloro-N-(1,4-dioxo-1,4-dihydronaphthalen-2-yl)benzamide]	405	27000	67	
CC1=C(C/C=C(\C)CCC[C@H](C)CCC[C@H](C)CCCC(C)C)C(=O)c2ccccc2C1=O [VK1, phylloquinone, reference compound]				protection from oxidative cell death ([3]; glutamate): rescued HT22 cells from oxidative cell death; cellular toxicity [5]: neither exhibited any signs of cellular toxicity; reduction of seizures ([2]; PTZ-treated 6 dpf zebrafish, up to 100 mM): neither were found to reduce seizures
O=C(NC1=CC(=O)c2ccccc2C1=O)c1cccc(Cl)c1 [Compound 3j, 3-chloro-N-(1,4-dioxo-1,4-dihydronaphthalen-2-yl)benzamide]	492	> 100000	203	
O=C(Cc1ccc(-c2ccccc2)cc1)NC1=CC(=O)c2ccccc2C1=O [Compound 3l, 2-([1,1′-biphenyl]-4-yl)-N-(1,4-dioxo-1,4-dihydronaphthalen-2-yl)acetamide]	890	42000	47	
O=C(CCCCCCC(=O)Nc1ccccc1)NO [Suberoylanilide hydroxamic acid (SAHA), suberoylanilide hydroxamic acid]				Lethal dose [1]: >0.015 mM; Highest concentration tested for anti-seizure activity [1]: 0.015 mM; Seizure suppression [2]: No
CCC(=O)NC1=CC(=O)c2ccccc2C1=O [Compound 3b, N-(1,4-dioxo-1,4-dihydronaphthalen-2-yl)propionamide]	760		105	CC50 at 24 h [4]: 80000 nM
O=C(NCc1ccccc1)NC1=CC(=O)c2ccccc2C1=O [Compound 4d, 1-benzyl-3-(1,4-dioxo-1,4-dihydronaphthalen-2-yl)urea]	740		135	CC50 at 24 h [4]: > 100000 nM
O=C(Cc1ccccc1)NC1=CC(=O)c2ccccc2C1=O [Compound 3k, N-(1,4-dioxo-1,4-dihydronaphthalen-2-yl)-2-phenylacetamide]	658		49	CC50 at 24 h [4]: 32000 nM
O=C(NO)C(c1ccccc1)c1ccccc1 [Diphenyl acetic hydroxamic acid (dPAHA), diphenyl acetic hydroxamic acid]				Lethal dose [1]: 0.01 mM; Highest concentration tested for anti-seizure activity [1]: 0.0075 mM; Seizure suppression [2]: No
O=C1C=C(NC(=O)C2CCCC2)C(=O)c2ccccc21 [Compound 3e, N-(1,4-dioxo-1,4-dihydronaphthalen-2-yl)cyclopentanecarboxamide]	> 1000	6000	0	
CCNC(=O)NC1=CC(=O)c2ccccc2C1=O [Compound 4a, 1-(1,4-dioxo-1,4-dihydronaphthalen-2-yl)-3-ethylurea]	177		28	CC50 at 24 h [4]: 5000 nM
O=C(NC1=CC(=O)c2ccccc2C1=O)Nc1ccccc1 [Compound 4c, 1-(1,4-dioxo-1,4-dihydronaphthalen-2-yl)-3-phenylurea]	890	> 100000	112	
